Assay results taken from PubChem BioAssay (NCI).
Several values for one entry are separate records, joined by “and”; a condition that tells them apart may be missing. Equal entries are not always repeated.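 Five concentrations, 48 hours, 96-well plates. At the GI50, growth is halved. TGI marks complete inhibition of growth.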

Legend:
Experiment in all cases: inhibition of tumour cell growth, NCI panel, 48 h
[1] = tested on: DMS 273 small cell lung
[2] = tested on: KM20L2 colon
[3] = tested on: RXF-631 renal
[4] = tested on: XF 498 CNS
[5] = tested on: SNB-78 CNS
[6] = tested on: BT-549 breast
[7] = tested on: MCF7 breast
[8] = tested on: MDA-N
[9] = tested on: T-47D breast

Row | SMILES | TGI [1] | TGI [2] [µM] | TGI [3] [µM] | TGI [4] [µM] | TGI [5] | GI50 [2] | TGI [6] [µM] | TGI [7] [µM] | GI50 [1] [µM] | GI50 [5] [µM] | TGI [8] [µM] | TGI [9] [µM]
1 | CC(=O)O/N=C/c1ncccc1CO | > 100 µM | > 100 | > 100 | > 100 | – | – | – | – | – | – | – | –
2 | N#CC(C#N)=C(N)/C(C#N)=C\c1ccnc2ccccc12 | 40.5 µM | – | – | 69.7 | > 100 µM | – | – | – | – | – | – | –
3 | CC(=O)N/C(=C\c1ccc(/C=C(\NC(C)=O)c2nc3ccc(Cl)cc3[nH]2)cc1)c1nc2ccccc2[nH]1 | > 100 µM | > 100 | > 100 | > 100 | > 100 µM | – | – | – | – | – | – | –
4 | O=C1C(Br)=C[C@H]2C3C=CC(Br)(C3=O)[C@@H]12 (some centres undefined) | 27 µM | 18.2 | 50.1 | 31.2 | > 100 µM | – | – | – | – | – | – | –
5 | COc1ccc(-c2c(C3=NCCN3)nnn2-c2ccccc2)cc1 | > 100 µM | > 100 | – | > 100 | > 100 µM | – | – | – | – | – | – | –
6 | C=CCCCCCCCCCCCC1CCC(CC)N1 (centres undefined) | 5.92 µM | 15.8 | 23.5 | – | 37.8 µM | – | – | – | – | – | – | –
7 | COC1=CC23C=CC1[C@@H](c1ccccc1)C2=C(C)C(=O)N3C(=O)NC1CCCCC1 (some centres undefined) | – | 50.7 | – | – | 70.1 µM | – | – | – | – | – | – | –
8 | O=C(Nc1ccccc1)c1ccc(Cl)c([N+](=O)[O-])c1 | 14.2 µM | 47.5 | – | 43.4 | 83.9 µM | – | – | – | – | – | – | –
9 | CC(C)=CC(C(O)c1ccccc1)S(=O)(=O)c1nccn1C (centres undefined) | > 100 µM | > 100 | > 100 | > 100 | – | – | – | – | – | – | – | –
10 | CC(=O)NC(CCCCNC(=O)OCc1ccccc1)C(=O)NCc1ccccc1 (centres undefined) | > 100 µM | > 100 | – | > 100 | > 100 µM | – | – | – | – | – | – | –
11 | CCN(CC)CCn1c2c3ccccc3ccc2c2oc(=O)c3ccccc3c21 | – | > 100 | > 100 | > 100 | > 100 µM | – | – | – | – | – | – | –
12 | CCC(=O)c1cn(C)c(=O)c2ccccc12 | > 100 µM | > 100 | > 100 | > 100 | > 100 µM | – | – | – | – | – | – | –
13 | COc1ccc(NC(=O)C2C(=O)N(c3ccc(OC)cc3)C(=O)/C2=N/O)cc1 (centres undefined) | > 81.1 µM | > 100 | – | 18.7 | > 100 µM | – | – | – | – | – | – | –
14 | CC(=O)OCC1OC(n2c(-c3ccccc3)cc(-c3ccco3)c(C#N)c2=O)C(OC(C)=O)C(OC(C)=O)C1OC(C)=O (centres undefined) | > 100 µM | > 100 | – | 43.7 | > 100 µM | 50.9 µM | – | – | – | – | – | –
15 | Cc1nc2ccc(C(F)(F)F)cc2nc1Nc1ccc(Cl)c(Cl)c1 | 16.1 µM | 13.2 | 20.1 | 22.2 | 34.4 µM | – | – | – | – | – | – | –
16 | CC1CC(c2ccccc2)=Nc2ccccc2S1(=O)=O (centres undefined) | 38.3 µM | 31.7 | – | 32.7 | 30.8 µM | – | – | – | – | – | – | –
17 | COC(=O)c1c(-c2ccccc2)cc2c3cc(-c4ccccc4)c(C(=O)OC)n3c3ccccc3n12 | > 100 µM | > 100 | > 100 | > 100 | > 100 µM | – | – | – | – | – | – | –

Row | SMILES | TGI [1] | TGI [2] [µM] | TGI [3] [µM] | TGI [4] [µM] | TGI [5] | GI50 [2] | TGI [6] [µM] | TGI [7] [µM] | GI50 [1] [µM] | GI50 [5] [µM] | TGI [8] [µM] | TGI [9] [µM]
18 | O=[N+]([O-])c1c(/C=N/Nc2ccccc2)oc(-c2ccc3c(c2)OCO3)c1-c1ccc2c(c1)OCO2 | – | 37.5 | > 100 | > 100 | – | – | – | – | – | – | – | –
19 | CCN(CC)c1ccc(N=Nc2ccc(-c3nc4cccnc4o3)cc2)cc1 | > 100 µM | > 100 | – | > 100 | > 100 µM | – | – | – | – | – | – | –
20 | O=C1C=C(c2c(O)ccc3ccccc23)c2ccccc2C1=O | 11.3 µM | 32.1 | 32.9 | – | 8.64 µM | – | 5.32 | 2.11 | – | – | – | –
21 | CCN(CC)CCC1CC/C(=C\c2ccc(OC)cc2)C1=O (centres undefined) | > 100 µM | 78.3 | – | > 100 | > 100 µM | – | – | – | – | – | – | –
22 | CCOc1ccccc1NC(=O)/C=C1\NC(=O)CS1 | > 100 µM | > 100 | – | > 100 | > 100 µM | – | – | – | – | – | – | –
23 | Cc1cc2c(CC(=O)O)[nH]nc2c(C(=O)O)c1C | > 100 µM | > 100 | > 100 | > 100 | > 100 µM | – | – | – | – | – | – | –
24 | C[CH2][Sn]1([CH2]C)[O]C(=O)[O][Sn]([CH2]C)([CH2]C)[O]1 | > 100 µM | > 87.7 | – | – | 37.4 µM | 31.6 µM | – | – | 59.4 | 17.1 | – | –
25 | Cc1cc2nc3c(=O)n(C)c(=O)nc-3n(-c3ccc(Cl)cc3)c2cc1C | 20.6 µM | 26.1 | – | 7.14 | 45.9 µM | – | – | – | – | – | – | –
26 | NC(N)=N/N=C(/c1nc2ccc([N+](=O)[O-])cc2[nH]c1=O)C(O)c1ccco1 (centres undefined) | > 100 µM | > 100 | – | > 100 | > 100 µM | – | – | – | – | – | – | –
27 | COc1cc(C2c3cc4c(cc3[C@@H](Nc3ccc(C(=O)O)cc3)C3COC(=O)[C@H]23)OCO4)cc(OC)c1O (some centres undefined) | 28.5 µM and > 17.5 µM | > 100 | – | – | 92.7 µM and 17.4 µM | 36.8 µM and > 17.5 µM | – | – | – | – | – | –
28 | CCOC(=O)CCC(=O)C1c2cccc(O)c2C(=O)c2c(O)cccc21 | 2.73 µM | – | – | 0.551 | – | – | – | – | – | – | – | –
29 | C=CCNC(=S)N1CC(C)C(=O)Nc2ccccc21 (centres undefined) | > 100 µM | > 100 | – | > 100 | > 100 µM | – | – | – | – | – | – | –
30 | Nc1ccc(C(=O)N/C(=C\C=C\c2ccco2)c2nc3[nH]c(=S)[nH]c(=O)c3[nH]2)cc1 | > 100 µM | > 100 | > 100 | > 100 | > 100 µM | – | – | – | – | – | – | –
31 | CN1CCN(CCSC2Cc3cc(Cl)ccc3Sc3ccccc32)CC1 (centres undefined) | 4.28 µM | 4.08 | – | 9.57 | – | – | – | – | – | – | – | –
32 | Cc1cc2nc3c(C(OC4OC(CO)C(O)C(O)C4O)C(O)CO)nn(-c4ccccc4)c3nc2cc1C (centres undefined) | – | > 100 | – | > 100 | > 100 µM | – | – | – | – | – | – | –
33 | NC(=O)c1c[se]c(C2OC(CO)C(O)C2O)n1 (centres undefined) | > 100 µM | – | > 100 | > 100 | – | – | > 100 | > 100 | – | – | > 100 | > 100
